Earlier results in patent publication US11744878B2 (priority 2020, dated 2023).
Where no end group is shown, it is not given here.

Columns and labels:
pancreas = conditions: cited from earlier work
[1] = in vivo; cited from earlier work
COVID-19 = conditions: most critically ill patients with COVID-19; cited from earlier work
SARS coronavirus = conditions: cited from earlier work

## secretin (HSDGTFTSELSRLRDSARLQRLLQGLV; not fully specified (C-terminus); ends and bridges not checked; UniProt P63298 33-59, looked up)
pancreas; in vivo
  pancreatic duct diameter: increases the pancreatic duct diameter
  sphincter of Oddi: causes sphincter of Oddi relaxation
pancreas; primary action
  volume and bicarbonate content of pancreatic juice: increase the volume and bicarbonate content
[1]
  crossing of the blood-brain barrier: rapidly crosses the blood-brain barrier
  distribution in the body: highly and rapidly distributed

## synthetic porcine secretin: new synthetic porcine secretin, manufactured by ChiRhoClin, Inc. (HSDGTFTSELSRLRDSARLQRLLQGLV; not fully specified (C-terminus); ends and bridges not checked; UniProt P63298 33-59, looked up)
pancreas; compared with secretin extracted from porcine duodenum
  effectiveness as a pancreatic secretagogue: equally effective

## CC[C@H](C)[C@H](NC(=O)[C@H](CO)NC(=O)[C@H](CC(N)=O)NC(=O)[C@H](CC(C)C)NC(=O)[C@H](Cc1ccc(O)cc1)NC(=O)[C@H](CCCCN)NC(=O)[C@H](CCCCN)NC(=O)[C@@H](NC(=O)[C@H](C)NC(=O)[C@H](CCSC)NC(=O)[C@H](CCC(N)=O)NC(=O)[C@H](CCCCN)NC(=O)[C@H](CCCNC(=N)N)NC(=O)[C@H](CC(C)C)NC(=O)[C@H](CCCNC(=N)N)NC(=O)[C@@H](NC(=O)[C@H](Cc1ccc(O)cc1)NC(=O)[C@H](CC(N)=O)NC(=O)[C@H](CC(=O)O)NC(=O)[C@@H](NC(=O)[C@H](Cc1ccccc1)NC(=O)[C@@H](NC(=O)[C@H](C)NC(=O)[C@H](CC(=O)O)NC(=O)[C@H](CO)NC(=O)[C@@H](N)Cc1c[nH]cn1)C(C)C)[C@@H](C)O)[C@@H](C)O)C(C)C)C(=O)N[C@@H](CC(C)C)C(=O)N[C@@H](CC(N)=O)C(N)=O [RLF-100, aviptadil]
COVID-19
  recovery from respiratory failure: rapid recovery from respiratory failure
SARS coronavirus
  replication of the SARS coronavirus: blocked replication
